Patent publication US20250179013A1, “INHIBITORS OF RNA HELICASE DHX9 AND USES THEREOF” (ACCENT THERAPEUTICS, INC., priority 2022, published 2025)
Like-named read-outs stand apart in the source and are kept apart here.

Key:
[1] = test system: DHX9 (circBRIP1 mRNA in HCT116 cells); assay: DHX9 circBRIP1 Cellular Target Engagement SYBR Green Assay; type: cell-based; settings: 72 hours
[2] = target: T1, Human recombinant DHX9 protein (Homo sapiens, UniProt Q08211); assay: DHX9 ATPase assay (ADP-Glo biochemical assay); settings: for DHX9 Biochemical Max Inhibition: maximum inhibition in ATPase assay, 10 μM Aurintricarboxylic acid = 100%; for IC50: read-out: DHX9 Biochemical Inflection Point
T1 construct: purchased Viva
T1 sequence (Q08211 whole entry): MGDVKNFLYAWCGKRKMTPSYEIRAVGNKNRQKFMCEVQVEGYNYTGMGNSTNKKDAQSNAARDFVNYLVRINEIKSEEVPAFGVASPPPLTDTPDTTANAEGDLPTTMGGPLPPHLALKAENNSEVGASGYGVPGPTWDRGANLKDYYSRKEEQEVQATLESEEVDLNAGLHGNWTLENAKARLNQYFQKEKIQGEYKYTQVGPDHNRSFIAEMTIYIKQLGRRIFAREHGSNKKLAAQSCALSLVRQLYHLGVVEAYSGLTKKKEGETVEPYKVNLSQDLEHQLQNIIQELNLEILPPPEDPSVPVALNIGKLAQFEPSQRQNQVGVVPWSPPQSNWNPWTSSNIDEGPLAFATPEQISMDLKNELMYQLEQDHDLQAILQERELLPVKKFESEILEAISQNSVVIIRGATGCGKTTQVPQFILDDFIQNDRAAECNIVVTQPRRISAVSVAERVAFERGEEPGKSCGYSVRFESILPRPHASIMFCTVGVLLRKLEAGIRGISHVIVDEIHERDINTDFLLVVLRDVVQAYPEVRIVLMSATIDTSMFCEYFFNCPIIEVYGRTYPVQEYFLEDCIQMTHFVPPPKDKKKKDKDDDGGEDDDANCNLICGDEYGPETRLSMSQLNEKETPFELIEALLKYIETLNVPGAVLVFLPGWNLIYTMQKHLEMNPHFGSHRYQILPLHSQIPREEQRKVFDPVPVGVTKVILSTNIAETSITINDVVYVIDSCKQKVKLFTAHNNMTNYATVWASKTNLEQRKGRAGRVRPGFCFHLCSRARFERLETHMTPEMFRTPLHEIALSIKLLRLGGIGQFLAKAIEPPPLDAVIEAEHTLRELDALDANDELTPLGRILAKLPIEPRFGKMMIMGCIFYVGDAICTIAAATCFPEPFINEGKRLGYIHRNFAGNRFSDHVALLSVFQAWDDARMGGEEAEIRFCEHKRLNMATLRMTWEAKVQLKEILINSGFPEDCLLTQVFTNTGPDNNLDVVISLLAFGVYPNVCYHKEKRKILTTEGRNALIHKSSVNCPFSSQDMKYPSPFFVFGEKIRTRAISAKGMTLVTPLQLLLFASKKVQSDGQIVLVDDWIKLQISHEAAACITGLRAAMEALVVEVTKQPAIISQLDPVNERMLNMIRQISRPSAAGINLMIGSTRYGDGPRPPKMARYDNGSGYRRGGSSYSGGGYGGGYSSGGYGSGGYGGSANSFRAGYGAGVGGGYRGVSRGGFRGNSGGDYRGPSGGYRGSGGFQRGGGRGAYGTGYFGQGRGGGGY

[3] = Homo sapiens, HCT-116, circBRIP1 qPCR

| SMILES | EC50 [1, 3] | DHX9 Biochemical Max Inhibition [2] | IC50 [2] | EC50 ([1]; circBRIP1 qPCR) | IC50 ([2]; inflection point (IP) of four-parameter fit, reported instead of IC50, ATPase, dsRNA substrate, 1 h room temperature) |
| --- | --- | --- | --- | --- | --- |
| CC(=O)Nc1ccccc1-c1csc(C(=O)Nc2cccc(NS(C)(=O)=O)c2)c1 [Example 93, 4-(2-acetamidophenyl)-N-(3-(methylsulfonamido)phenyl)thiophene-2-carboxamide] | 11500 nM | 74% | 39.9 nM |  |  |
| CS(=O)(=O)Nc1cccc(NC(=O)c2cc(-c3cc(N)ccn3)cs2)c1 [Example 86] | 19500 nM | 71.1% | 45.3 nM |  |  |
| CS(=O)(=O)Nc1cccc(NC(=O)c2ccn(-c3c(F)cccc3F)n2)c1 [Example 12] | > 30000 nM | 83.3% | 355 nM |  |  |
| CS(=O)(=O)Nc1cccc(NC(=O)c2cccc(-n3cccn3)c2)c1 [Example 40] | > 30000 nM | 72.8% | 371 nM |  |  |
| CC(=O)Nc1cccnc1-c1csc(C(=O)Nc2cccc(NS(C)(=O)=O)c2)c1 [Example 94] | > 30000 nM | 71.2% | 125 nM |  |  |
| Cc1cccnc1-c1csc(C(=O)Nc2cccc(NS(C)(=O)=O)c2)c1 [Example 83] | 917 nM | 73.1% | 17.3 nM |  |  |
| Cc1c(O)cccc1-c1csc(C(=O)Nc2cccc(NS(C)(=O)=O)c2)c1 [Example 74, 4-(3-hydroxy-2-methylphenyl)-N-(3-(methylsulfonamido)phenyl)thiophene-2-carboxamide] | ≥ 30000 nM | 71.4% | 80.6 nM |  |  |
| COc1cccc(-c2csc(C(=O)Nc3cccc(NS(C)(=O)=O)c3)c2)c1 [Example 56] | 21400 nM | 68.2% | 148 nM |  |  |
| CS(=N)(=O)Nc1cccc(NC(=O)c2cc(-c3ccccc3)cs2)c1 (stereo not drawn) [Example 157, N-(3-(methylsulfonoamidimidamido)phenyl)-4-phenylthiophene-2-carboxamide] |  | 68.6% |  | > 30000 nM | 205 nM |
| CS(=O)(=O)Nc1cccc(NC(=O)c2cc(-c3cc(C(N)=O)ccn3)cs2)c1 [Example 92] | > 30000 nM | 75.5% | 55.4 nM |  |  |
| CS(=O)(=O)Nc1cccc(NC(=O)c2cc(-c3ncccn3)cs2)c1 [Example 84] | 4840 nM | 71.4% | 12.5 nM |  |  |
| CCOc1ncc(-c2csc(C(=O)Nc3cccc(NS(C)(=O)=O)c3)c2)cn1 [Example 63] | 18800 nM | 66.9% | 121 nM |  |  |

The next lines start with results.

| EC50 [1, 3] | DHX9 Biochemical Max Inhibition [2] | IC50 [2] | SMILES | EC50 ([1]; circBRIP1 qPCR) | IC50 ([2]; inflection point (IP) of four-parameter fit, reported instead of IC50, ATPase, dsRNA substrate, 1 h room temperature) |
| --- | --- | --- | --- | --- | --- |
| > 30000 nM | 66.5% | 45.8 nM | CS(=O)(=O)Nc1cccc(NC(=O)c2cc(-c3cccc(C(N)=O)c3)cs2)c1 [Example 50] |  |  |
| 28500 nM | 65.8% | 333 nM | CS(=O)(=O)Nc1cccc(NC(=O)c2cc(-c3ccccc3)c(C#N)s2)c1 [Example 100, 5-cyano-N-(3-(methylsulfonamido)phenyl)-4-phenylthiophene-2-carboxamide] |  |  |
| 2040 nM | 72.3% | 89.4 nM | CS(=O)(=O)Nc1cccc(NC(=O)c2cc(-c3ccccc3OCc3ccccc3)cs2)c1 [Example 77] |  |  |
| > 30000 nM | 71.2% | 467 nM | Cn1nc(C(=O)Nc2cccc(NS(C)(=O)=O)c2)cc1-c1ccc(O)cc1 [Example 79] |  |  |
| 25300 nM | 70.7% | 41.9 nM | CS(=O)(=O)Nc1cccc(NC(=O)c2cc(-c3ccccc3O)cs2)c1 [Example 57] |  |  |
| 5910 nM | 77.9% | 43.2 nM | CS(=O)(=O)Nc1cccc(NC(=O)c2cc(-c3ccccc3)c(CO)s2)c1 [Example 153, 5-(hydroxymethyl)-N-(3-(methylsulfonamido)phenyl)-4-phenylthiophene-2-carboxamide] |  |  |
| > 30000 nM | 73.1% | 7.6 nM | CC(=O)N1CCN(c2ccc(-c3csc(C(=O)Nc4cccc(NS(C)(=O)=O)c4)c3)nc2)CC1 [Example 95] |  |  |
